Source: the Kinase Knowledgebase extract (Sharma et al. 2016)

Tests used:
MAPK14 (human) = MAPK14 (human) (UniProt Q16539); assay: p38 Enzyme Inhibition Assay
[1] = biological target: MAPK14 (human), Q16539 [p38(A157V) Mutant Enzyme Inhibition Assay]; assay: p38(A157V) Mutant Enzyme Inhibition Assay
[2] = biological target: MAPK14 (human), Q16539 [p38(M109A) Mutant Enzyme Inhibition Assay]; assay: p38(M109A) Mutant Enzyme Inhibition Assay
MAPK14 (human), Q16539 [p38(M109A) Mutant Enzyme Inhibition Assay], sequence (Q16539 whole entry, looked up, stated change not applied): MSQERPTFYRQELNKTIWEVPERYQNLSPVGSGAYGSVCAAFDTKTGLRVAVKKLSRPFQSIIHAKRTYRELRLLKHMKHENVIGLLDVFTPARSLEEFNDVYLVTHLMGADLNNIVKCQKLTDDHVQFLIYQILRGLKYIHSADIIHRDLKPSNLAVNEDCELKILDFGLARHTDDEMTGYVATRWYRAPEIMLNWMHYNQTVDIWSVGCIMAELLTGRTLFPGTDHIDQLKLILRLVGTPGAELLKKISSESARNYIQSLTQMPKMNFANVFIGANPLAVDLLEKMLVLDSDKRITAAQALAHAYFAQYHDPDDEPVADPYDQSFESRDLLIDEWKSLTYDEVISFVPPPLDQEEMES

MAPK14 (human), Q16539 [p38(A157V) Mutant Enzyme Inhibition Assay], sequence (Q16539 whole entry, looked up, stated change not applied): as above
MAPK14 (human), sequence (Q16539 whole entry, looked up): as the sequence (Q16539 whole entry, looked up, stated change not applied) above

IC50 (MAPK14 (human)) [nM]	IC50 [1] [nM]	IC50 [2] [nM]	Compound
4	58	7.5	C[S+]([O-])c1ccc(-c2cc(-c3ccc(F)cc3)c(-c3ccncc3)[nH]2)cc1 (configuration not stated)
94	13	712	C[C@H](Nc1cc(-c2nc(C3CCCNC3)n(C)c2-c2cccc(C(F)(F)F)c2)ccn1)c1ccccc1 (some centres not stated)
7	< 0.5	46	Cn1c(C2CCNCC2)nc(-c2cccc(C(F)(F)F)c2)c1-c1ccncc1
12	450	37	C[S+]([O-])c1ccc(-c2cc(-c3ccc(F)c(F)c3)c(-c3ccncc3)[nH]2)cc1 (configuration not stated)
